In article PMC8916643, “Molecular physiology of pumiliotoxin sequestration in a poison frog” (PLoS ONE, 2022):

Assays:
[1] = biological target: T1, human recombinant CYP2D6 (Homo sapiens, UniProt P10635); test: CYP2D6 metabolite discovery (metID); type: in vitro ADME; conditions: initial concentration 10 μM
T1 construct: Eurofins Discovery Services (Eurofins Panlabs Inc) ran the assay
Procedure: Assays for human CYP activity (CYP phenotyping), CYP2D6 metabolite discovery (metID), ion channel inhibition (CiPA), and G-protein coupled receptor (GPCR) activity (gpcrMAX) were performed through Eurofins Discovery Services (Eurofins Panlabs Inc, St. Charles MO, USA). In the CYP phenotyping panel, human recombinant CYP1A2, CYP2B6, CYP2C8, CYP2C9, CYP2C19, CYP2D6, and CYP3A4 were included in the assay. A concentration of 1E-07 M of PTX 251D was tested, and the percent compound remaining was quantified at 0, 15, 30, 45, and 60 minutes using HPLC-MS/MS. As a positive control, a reference compound was used for each CYP tested (see S1 File for results). In the CYP2D6 metabolism assay, human recombinant CYP2D6 was incubated with an initial concentration of 10 μM and metabolites were quantified after 90 minutes using LC-MS/MS. Two replicates were used for the CYP phenotyping panel and one replicate was used for CYP2D6 metabolite assay. The CiPA assay was a cell-based QPatch on voltage-gated sodium channel NaV1.5 (peak and late/agonist), voltage-gated potassium channels Kv4.3/KChIP2, hERG, KCNQ1/minK, Kir2.1, and voltage-gated calcium channel Cav1.2. The concentrations of PTX 251D assayed were 3, 10, and 30 μM, and a reference compound for each channel was used (see S1 File for results and individual QPatch parameters). […]

[2] = biological target: T2, KCNQ1/minK (Homo sapiens, UniProt P51787); test: CiPA cell-based QPatch ion channel inhibition; conditions: maximum concentration of 30 uM
T2 construct: Eurofins Discovery Services (Eurofins Panlabs Inc) ran the assay
Procedure: (§1) Assays for human CYP activity (CYP phenotyping), CYP2D6 metabolite discovery (metID), ion channel inhibition (CiPA), and G-protein coupled receptor (GPCR) activity (gpcrMAX) were performed through Eurofins Discovery Services (Eurofins Panlabs Inc, St. Charles MO, USA). In the CYP phenotyping panel, human recombinant CYP1A2, CYP2B6, CYP2C8, CYP2C9, CYP2C19, CYP2D6, and CYP3A4 were included in the assay. A concentration of 1E-07 M of PTX 251D was tested, and the percent compound remaining was quantified at 0, 15, 30, 45, and 60 minutes using HPLC-MS/MS. As a positive control, a reference compound was used for each CYP tested (see S1 File for results). In the CYP2D6 metabolism assay, human recombinant CYP2D6 was incubated with an initial concentration of 10 μM and metabolites were quantified after 90 minutes using LC-MS/MS. Two replicates were used for the CYP phenotyping panel and one replicate was used for CYP2D6 metabolite assay. The CiPA assay was a cell-based QPatch on voltage-gated sodium channel NaV1.5 (peak and late/agonist), voltage-gated potassium channels Kv4.3/KChIP2, hERG, KCNQ1/minK, Kir2.1, and voltage-gated calcium channel Cav1.2. The concentrations of PTX 251D assayed were 3, 10, and 30 μM, and a reference compound for each channel was used (see S1 File for results and individual QPatch parameters). In the gpcrMAX assay a panel of 165 GPCRs was tested through the DiscoverX PathHunter beta-arrestin enzyme fragment complementation technology, and a concentration of 10 μM PTX 251D was tested for both agonist and antagonist activity along with a reference compound for each GPCR (see S1 File for results).

[3] = biological target: T3, Kir2.1 (Homo sapiens, UniProt P63252); test: CiPA cell-based QPatch ion channel inhibition; conditions: maximum concentration of 30 uM
T3 construct: Eurofins Discovery Services (Eurofins Panlabs Inc) ran the assay
T3 sequence (P63252 1-427): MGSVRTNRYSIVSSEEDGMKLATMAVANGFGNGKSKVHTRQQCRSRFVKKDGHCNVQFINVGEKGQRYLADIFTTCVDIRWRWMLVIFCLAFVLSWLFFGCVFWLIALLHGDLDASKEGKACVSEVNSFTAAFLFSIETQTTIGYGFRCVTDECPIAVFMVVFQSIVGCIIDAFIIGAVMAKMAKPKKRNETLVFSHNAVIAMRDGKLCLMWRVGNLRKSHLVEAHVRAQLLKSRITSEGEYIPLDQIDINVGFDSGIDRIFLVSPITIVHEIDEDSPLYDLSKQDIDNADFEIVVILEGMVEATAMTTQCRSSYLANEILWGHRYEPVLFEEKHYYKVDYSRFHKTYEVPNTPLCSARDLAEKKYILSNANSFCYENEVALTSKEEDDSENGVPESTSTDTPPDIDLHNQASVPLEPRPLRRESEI
Procedure: as §1

[4] = biological target: T4, Kv4.3/KChIP2 (Homo sapiens, UniProt Q9UK17); test: CiPA cell-based QPatch ion channel inhibition; conditions: maximum concentration of 30 uM
T4 construct: Eurofins Discovery Services (Eurofins Panlabs Inc) ran the assay
T4 sequence (Q9UK17 1-655): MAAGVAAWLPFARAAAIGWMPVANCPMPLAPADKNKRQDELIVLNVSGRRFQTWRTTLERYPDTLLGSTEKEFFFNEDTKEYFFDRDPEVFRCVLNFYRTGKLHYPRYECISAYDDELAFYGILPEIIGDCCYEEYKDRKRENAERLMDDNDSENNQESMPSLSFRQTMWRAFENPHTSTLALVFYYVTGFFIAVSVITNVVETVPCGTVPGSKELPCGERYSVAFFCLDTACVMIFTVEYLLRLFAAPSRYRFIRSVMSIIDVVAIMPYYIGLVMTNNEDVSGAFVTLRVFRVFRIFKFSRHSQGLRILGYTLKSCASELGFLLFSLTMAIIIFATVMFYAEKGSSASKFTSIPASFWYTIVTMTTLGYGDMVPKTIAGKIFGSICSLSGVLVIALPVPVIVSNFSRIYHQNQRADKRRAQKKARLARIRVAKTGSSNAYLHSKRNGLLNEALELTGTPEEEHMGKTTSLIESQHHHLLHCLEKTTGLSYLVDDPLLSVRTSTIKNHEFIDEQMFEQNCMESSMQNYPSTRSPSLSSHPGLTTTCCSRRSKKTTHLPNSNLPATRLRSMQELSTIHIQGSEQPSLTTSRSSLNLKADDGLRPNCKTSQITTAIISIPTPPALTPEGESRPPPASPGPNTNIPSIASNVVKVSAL
T4 sequence (Q9NS61 1-270 partner): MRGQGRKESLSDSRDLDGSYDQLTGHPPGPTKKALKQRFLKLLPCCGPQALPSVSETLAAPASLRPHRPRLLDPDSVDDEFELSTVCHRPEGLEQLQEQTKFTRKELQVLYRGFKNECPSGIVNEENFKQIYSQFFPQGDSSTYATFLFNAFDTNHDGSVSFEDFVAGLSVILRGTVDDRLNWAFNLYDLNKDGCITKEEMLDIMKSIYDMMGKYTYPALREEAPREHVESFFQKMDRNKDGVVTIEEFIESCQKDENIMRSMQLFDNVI
Procedure: as §1

[5] = biological target: T5, hERG (Homo sapiens, UniProt Q12809); test: CiPA cell-based QPatch ion channel inhibition; conditions: maximum concentration of 30 uM
T5 construct: Eurofins Discovery Services (Eurofins Panlabs Inc) ran the assay
Procedure: as §1

[6] = biological target: T6, voltage-gated calcium channel Cav1.2 (Homo sapiens, UniProt Q13936); test: CiPA cell-based QPatch ion channel inhibition; conditions: maximum concentration of 30 uM
T6 construct: Eurofins Discovery Services (Eurofins Panlabs Inc) ran the assay
Procedure: as §1

[7] = biological target: T7, voltage-gated sodium channel NaV1.5 (Homo sapiens, UniProt Q14524); test: CiPA cell-based QPatch ion channel inhibition; conditions: maximum concentration of 30 uM
T7 construct: Eurofins Discovery Services (Eurofins Panlabs Inc) ran the assay
Procedure: as §1

T1 sequence (P10635 whole entry): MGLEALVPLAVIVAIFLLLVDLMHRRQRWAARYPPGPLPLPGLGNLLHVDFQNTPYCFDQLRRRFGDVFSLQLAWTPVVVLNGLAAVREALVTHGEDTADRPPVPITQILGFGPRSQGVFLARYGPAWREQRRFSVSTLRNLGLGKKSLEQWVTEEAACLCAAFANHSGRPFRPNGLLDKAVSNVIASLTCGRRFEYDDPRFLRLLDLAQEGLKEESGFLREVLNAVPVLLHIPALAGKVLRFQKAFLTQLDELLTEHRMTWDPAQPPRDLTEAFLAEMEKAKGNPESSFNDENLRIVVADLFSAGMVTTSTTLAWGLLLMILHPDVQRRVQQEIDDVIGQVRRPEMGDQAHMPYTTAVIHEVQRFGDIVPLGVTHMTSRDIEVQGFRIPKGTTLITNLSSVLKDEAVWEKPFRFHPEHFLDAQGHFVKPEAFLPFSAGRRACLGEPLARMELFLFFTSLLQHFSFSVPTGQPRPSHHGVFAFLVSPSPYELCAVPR
T6 sequence (Q13936 whole entry): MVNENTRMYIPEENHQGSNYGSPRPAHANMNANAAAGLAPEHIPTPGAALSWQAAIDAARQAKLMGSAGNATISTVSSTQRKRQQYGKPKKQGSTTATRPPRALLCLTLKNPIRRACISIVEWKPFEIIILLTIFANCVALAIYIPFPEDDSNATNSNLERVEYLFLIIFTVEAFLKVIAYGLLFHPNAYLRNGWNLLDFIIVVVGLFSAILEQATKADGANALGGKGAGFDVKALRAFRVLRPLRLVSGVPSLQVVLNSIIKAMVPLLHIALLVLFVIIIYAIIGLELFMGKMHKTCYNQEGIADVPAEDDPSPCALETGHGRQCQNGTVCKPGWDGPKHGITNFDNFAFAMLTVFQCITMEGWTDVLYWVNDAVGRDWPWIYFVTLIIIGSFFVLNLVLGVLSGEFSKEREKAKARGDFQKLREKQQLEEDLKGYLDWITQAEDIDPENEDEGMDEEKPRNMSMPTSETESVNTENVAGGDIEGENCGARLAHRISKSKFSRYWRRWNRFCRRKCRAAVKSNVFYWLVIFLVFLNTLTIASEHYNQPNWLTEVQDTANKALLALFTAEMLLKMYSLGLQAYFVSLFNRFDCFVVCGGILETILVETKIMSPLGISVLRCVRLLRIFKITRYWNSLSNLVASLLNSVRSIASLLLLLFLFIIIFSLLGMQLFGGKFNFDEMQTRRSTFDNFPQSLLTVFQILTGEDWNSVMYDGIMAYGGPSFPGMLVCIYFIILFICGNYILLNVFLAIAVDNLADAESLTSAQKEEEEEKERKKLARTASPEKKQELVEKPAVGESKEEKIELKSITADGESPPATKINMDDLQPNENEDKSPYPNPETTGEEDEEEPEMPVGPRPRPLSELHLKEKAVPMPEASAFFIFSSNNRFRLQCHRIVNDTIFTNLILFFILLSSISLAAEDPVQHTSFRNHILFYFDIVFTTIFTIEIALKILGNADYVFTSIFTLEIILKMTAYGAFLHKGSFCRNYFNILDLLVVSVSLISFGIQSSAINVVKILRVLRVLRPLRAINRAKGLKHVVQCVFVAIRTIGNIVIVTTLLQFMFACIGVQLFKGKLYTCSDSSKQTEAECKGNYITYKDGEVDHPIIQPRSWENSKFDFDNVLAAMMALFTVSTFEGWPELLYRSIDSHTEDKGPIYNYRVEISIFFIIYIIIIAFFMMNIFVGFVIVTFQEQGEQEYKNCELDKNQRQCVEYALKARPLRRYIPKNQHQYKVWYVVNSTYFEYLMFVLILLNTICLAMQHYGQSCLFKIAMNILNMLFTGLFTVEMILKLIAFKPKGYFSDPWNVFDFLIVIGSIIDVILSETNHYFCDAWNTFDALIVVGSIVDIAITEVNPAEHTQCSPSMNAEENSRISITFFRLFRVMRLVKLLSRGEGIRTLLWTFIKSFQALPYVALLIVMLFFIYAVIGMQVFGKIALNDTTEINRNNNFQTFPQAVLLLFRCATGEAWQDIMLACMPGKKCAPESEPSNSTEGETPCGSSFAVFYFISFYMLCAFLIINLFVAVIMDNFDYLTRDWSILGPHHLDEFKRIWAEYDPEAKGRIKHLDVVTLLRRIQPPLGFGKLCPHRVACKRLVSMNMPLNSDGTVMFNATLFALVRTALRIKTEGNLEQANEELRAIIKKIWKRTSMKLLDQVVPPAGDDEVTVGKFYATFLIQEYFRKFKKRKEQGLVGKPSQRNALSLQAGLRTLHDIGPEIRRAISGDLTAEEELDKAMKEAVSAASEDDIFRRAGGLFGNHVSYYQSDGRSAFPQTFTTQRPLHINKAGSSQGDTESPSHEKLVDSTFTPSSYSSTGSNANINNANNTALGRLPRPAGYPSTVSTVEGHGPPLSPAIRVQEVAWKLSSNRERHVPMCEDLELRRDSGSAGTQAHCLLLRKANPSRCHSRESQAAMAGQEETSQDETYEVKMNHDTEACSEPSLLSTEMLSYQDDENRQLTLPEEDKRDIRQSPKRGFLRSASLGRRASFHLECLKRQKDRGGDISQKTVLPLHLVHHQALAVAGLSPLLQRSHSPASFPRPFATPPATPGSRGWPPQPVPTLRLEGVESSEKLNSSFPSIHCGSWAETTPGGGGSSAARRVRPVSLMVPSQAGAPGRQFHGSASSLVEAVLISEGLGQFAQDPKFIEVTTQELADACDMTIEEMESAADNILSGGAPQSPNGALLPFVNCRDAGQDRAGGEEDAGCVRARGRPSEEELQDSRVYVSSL
T6 sequence (Q08289 whole entry partner): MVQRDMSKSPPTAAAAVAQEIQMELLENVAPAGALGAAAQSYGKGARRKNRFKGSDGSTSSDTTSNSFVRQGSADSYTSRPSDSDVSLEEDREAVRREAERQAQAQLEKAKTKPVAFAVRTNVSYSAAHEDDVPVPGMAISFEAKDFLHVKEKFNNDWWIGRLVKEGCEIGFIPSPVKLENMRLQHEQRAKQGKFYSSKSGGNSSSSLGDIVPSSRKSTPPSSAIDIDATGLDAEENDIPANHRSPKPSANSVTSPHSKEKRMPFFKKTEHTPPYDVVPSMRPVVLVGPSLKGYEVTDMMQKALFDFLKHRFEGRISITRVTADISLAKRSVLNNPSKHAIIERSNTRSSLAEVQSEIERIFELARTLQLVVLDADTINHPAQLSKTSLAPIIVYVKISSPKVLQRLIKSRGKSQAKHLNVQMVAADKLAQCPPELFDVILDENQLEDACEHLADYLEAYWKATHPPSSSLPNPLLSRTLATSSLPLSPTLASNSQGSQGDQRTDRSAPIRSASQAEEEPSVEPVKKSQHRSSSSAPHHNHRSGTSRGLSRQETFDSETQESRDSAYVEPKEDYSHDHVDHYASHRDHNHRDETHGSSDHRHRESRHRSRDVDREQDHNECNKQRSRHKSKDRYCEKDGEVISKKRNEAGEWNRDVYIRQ
T6 sequence (P54289 25-946 partner limits assumed): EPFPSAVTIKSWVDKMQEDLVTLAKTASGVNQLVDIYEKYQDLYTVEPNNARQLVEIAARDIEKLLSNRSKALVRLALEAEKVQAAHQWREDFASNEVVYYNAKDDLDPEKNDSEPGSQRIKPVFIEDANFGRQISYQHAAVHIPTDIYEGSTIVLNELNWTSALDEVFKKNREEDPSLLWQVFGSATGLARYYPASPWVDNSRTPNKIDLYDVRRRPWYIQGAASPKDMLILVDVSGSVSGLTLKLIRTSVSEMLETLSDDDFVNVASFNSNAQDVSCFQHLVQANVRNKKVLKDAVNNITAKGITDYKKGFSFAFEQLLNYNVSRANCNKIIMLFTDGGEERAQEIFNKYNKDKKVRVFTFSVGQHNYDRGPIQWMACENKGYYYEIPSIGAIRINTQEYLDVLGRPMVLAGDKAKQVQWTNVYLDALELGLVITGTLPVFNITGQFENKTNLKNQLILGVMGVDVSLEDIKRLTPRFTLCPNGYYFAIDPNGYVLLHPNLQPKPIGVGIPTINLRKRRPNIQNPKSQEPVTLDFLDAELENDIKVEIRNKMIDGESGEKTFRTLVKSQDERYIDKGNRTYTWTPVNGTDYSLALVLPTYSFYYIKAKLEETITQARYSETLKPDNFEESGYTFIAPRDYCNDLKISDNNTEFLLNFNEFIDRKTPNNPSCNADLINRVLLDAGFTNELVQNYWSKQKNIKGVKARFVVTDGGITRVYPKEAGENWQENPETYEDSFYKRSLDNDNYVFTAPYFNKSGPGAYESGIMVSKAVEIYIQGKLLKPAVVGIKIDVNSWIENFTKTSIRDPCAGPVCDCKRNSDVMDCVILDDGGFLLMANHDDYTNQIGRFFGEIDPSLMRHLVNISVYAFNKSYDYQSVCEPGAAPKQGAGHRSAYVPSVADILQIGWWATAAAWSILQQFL
T6 sequence (P54289 947-1103 partner limits assumed): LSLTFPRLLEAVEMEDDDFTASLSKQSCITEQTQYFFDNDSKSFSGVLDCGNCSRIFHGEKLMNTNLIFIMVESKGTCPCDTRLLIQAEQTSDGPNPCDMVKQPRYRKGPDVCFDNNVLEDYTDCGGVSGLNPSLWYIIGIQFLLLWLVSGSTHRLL

Question: How did the “metabolites identified with CYP2D6” value ([1]; 90 minutes, one or two hydroxylation events) turn out when `CCCCC(C)C=C1CN2CCCC2C(C)(O)C1` (centres unmarked) [PTX 251D, pumiliotoxin (PTX 251D)] was run?
Answer: two metabolites were identified

Question: What about the “clearance of PTX 251D in CYP2D6 metabolite discovery screen” value ([1]; after 90 minutes, LC-MS/MS) of the same molecule?
Answer: completely cleared

Question: And the “inhibitory effect on KCNQ1/minK” value [2]?
Answer: no inhibitory effect

Question: And the “inhibitory effect on Kir2.1” value [3]?
Answer: no inhibitory effect

Question: What about the “inhibitory effect on Kv4.3/KChIP2” value [4] of the same molecule?
Answer: no inhibitory effect

Question: What about the “inhibitory effect on hERG” value [5] of the same molecule?
Answer: no inhibitory effect

Question: What about the “inhibitory effect on Cav1.2” value [6] of the same molecule?
Answer: no inhibitory effect

Question: What about the “inhibitory effect on NaV1.5” value [7] of the same molecule?
Answer: no inhibitory effect
